What all share (type): cell-based
In assay [1] the test system is circBRIP1 in HCT116 cells. In words: DHX9 circBRIP1 cellular target engagement TaqMan Multiplex assay (qPCR). Conditions: Homo sapiens, read-out: DHX9 Cellular Target Engagement EC50.
A further assay deals with NCI-H747 cells. As to the kind of experiment: DHX9 cellular proliferation assay (CellTiter-Glo), NCI-H747 (CRC-MSS). Conditions: Homo sapiens, performed at Pharmaron, read-out: H747 (CRC-MSS) Antiproliferative IC50. On the technique in general: In ATP-based viability assays light output follows the ATP content of the culture.
The test system of another assay is LS411N cells. As to the kind of experiment: DHX9 cellular proliferation assay (CellTiter-Glo), LS411N (CRC-MSI). Conditions: Homo sapiens, LS-411N, LS411N, performed at Pharmaron, read-out: LS411N (CRC-MSI-H) Antiproliferative IC50.
[2] abbreviates: HCT-116, circBRIP1, HCT116 cells, * Taqman assay was used.
The mark [3] stands for this setting: HCT-116, 72 h, circBRIP1, HCT116 cells, 72 hours, Taqman assay (marked *).

Where two headings read alike, the source gives them in different places.

For `Cc1sc(C(=O)Nc2cc(Cl)cc(NS(C)(=O)=O)c2)cc1-c1ncc(OCC(F)(F)F)cn1` [Example 706], the concentration giving a half-maximal response (EC50) in assay [1] (setting [2]) was found to be 51.7 nM. In addition, the IC50 with NCI-H747 cells (NCI-H747, NCI-H747) was 3880 nM; in the assay with LS411N cells it was 243 nM.
In the same order, the values of `Cn1cc(C(=O)Nc2cc(Cl)cc(NS(C)(=O)=O)c2)cc1-c1ncc(OC(F)F)cn1` [Example 553] are 71.6 nM, above 10000 nM and 211 nM.
On the same counts, the results for `Cn1cc(C(=O)Nc2cc(Cl)cc(NS(C)(=O)=O)c2)cc1-c1ccc(N2CC(CS(C)(=O)=O)C2)cn1` [Example 695] are 143 nM, above 10000 nM and 2970 nM.
For `COC1CCN(c2ccc(-c3cc(C(=O)Nc4cc(Cl)cc(NS(C)(=O)=O)c4)cn3C)nc2)CC1` [Example 515, N-(3-chloro-5-methanesulfonamidophenyl)-5-[5-(4-methoxypiperidin-1-yl)pyridin-2-yl]-1-methyl-1H-pyrrole-3-carboxamide], the EC50 in assay [1] (setting [2]) was determined as 21.6 nM. Moreover, the concentration for half-maximal inhibition (IC50) in the assay with NCI-H747 cells (NCI-H747, NCI-H747) came to 8780 nM; in the assay with LS411N cells, 89.3 nM.
As for `COc1cnc(-c2cc(C(=O)Nc3cc(Cl)cc(NS(C)(=O)=O)c3)sc2C)c(C)c1` [Example 361], in assay [1] (setting [3]), the concentration for a half-maximal effect (EC50) was determined as 43.2 nM. Besides, the half-maximal inhibitory concentration (IC50) amounted to 6250 nM with NCI-H747 cells (NCI-H747, NCI-H747, CRC-MSS) and 361 nM in the assay on LS411N cells (CRC-MSI-H).
In the same order, the values of `Cc1sc(C(=O)Nc2cc(Cl)cc(NS(C)(=O)=O)c2)cc1-c1ncc(OC(C)(C)C)cc1F` [Example 381] are 183 nM, 965 nM and 347 nM.
With `COc1cc(N2CC(F)(F)C2)cnc1-c1cc(C(=O)Nc2cc(Cl)cc(NS(=O)(=O)CCO)c2)sc1C` [Example 528], the concentration for a half-maximal effect (EC50) in assay [1] (setting [2]) was 72.3 nM. Besides, the IC50 stood at 6960 nM in the assay with NCI-H747 cells (NCI-H747, NCI-H747) and 1130 nM in the assay on LS411N cells.
In the same order, the values of `Cn1cc(C(=O)Nc2cc(Cl)cc(NS(C)(=O)=O)c2)cc1-c1ncc(N2CCC(F)(F)CC2)cc1F` [Example 469] are 83.8 nM, 3790 nM and 522 nM.
On the same counts, the results for `Cc1cc(C(=O)Nc2cc(Cl)cc(NS(C)(=O)=O)c2)cn1-c1ccc(N2CCC3(CC3)C2)cn1` [Example 522] are 109 nM, above 10000 nM and 211 nM.
`CCS(=O)(=O)Nc1cc(Cl)cc(NC(=O)c2cc(-c3ncc(OC)cc3F)c(C)s2)c1` [Example 360]: the EC50 in assay [1] (setting [3]) was 52.1 nM. Further, the IC50 was found to be 7070 nM in the assay with NCI-H747 cells (NCI-H747, NCI-H747, CRC-MSS) and 235 nM with LS411N cells (CRC-MSI-H).
As to `COC1CN(c2ccc(-c3cc(C(=O)Nc4cc(Cl)cc(NS(C)(=O)=O)c4)cn3C)nc2)C1` [Example 465], the EC50 in assay [1] (setting [2]) came out at 35.2 nM. Besides, the IC50 with NCI-H747 cells (NCI-H747, NCI-H747) was above 10000 nM; with LS411N cells it was 115 nM.
On the same counts, the results for `Cn1cc(C(=O)Nc2cc(Cl)cc(NS(C)(=O)=O)c2)cc1-c1ncc(N2CC3(C2)CC(F)(F)C3)cn1` [Example 492] are 44.4 nM, above 10000 nM and 209 nM.
On the same counts, the results for `CNc1cnc(-c2cc(C(=O)Nc3cc(Cl)cc(NS(C)(=O)=O)c3)sc2C)nc1` [Example 616, N-(3-chloro-5-methanesulfonamidophenyl)-5-methyl-4-[5-(methylamino)pyrimidin-2-yl]thiophene-2-carboxamide] are 17.3 nM, above 10000 nM and 348 nM.
For the compound `Cc1sc(C(=O)Nc2cc(Cl)cc(NS(C)(=O)=O)c2)cc1-c1ccc(N2CCN(C(=O)C3CC3)CC2)cn1` [Example 590, N-(3-chloro-5-methanesulfonamidophenyl)-4-[5-(4-cyclopropanecarbonylpiperazin-1-yl)pyridin-2-yl]-5-methylthiophene-2-carboxamide], the EC50 in assay [1] (setting [2]) was determined as 33.7 nM. Further, the IC50 in the assay with NCI-H747 cells (NCI-H747, NCI-H747) is above 10000 nM; in the assay with LS411N cells it was 533 nM.
In the case of `Cc1sc(C(=O)Nc2cc(Cl)cc(NS(C)(=O)=O)c2)cc1-c1ncc(N2CC3(C2)CC(F)(F)C3)cc1F` [Example 511], the EC50 in assay [1] (setting [2]) turned out to be 37.2 nM. Moreover, the IC50 in the assay on NCI-H747 cells (NCI-H747, NCI-H747) was 7410 nM; with LS411N cells, 149 nM.
In the same order, the values of `CC(C)Oc1cnc(-c2csc(C(=O)Nc3cc(Cl)cc(NS(C)(=O)=O)c3)c2)nc1` [Example 457] are 85.3 nM, 4800 nM and 76.1 nM.
In the same order, the values of `CC(=O)N1CCC(c2cnc(-c3cc(C(=O)Nc4cc(Cl)cc(NS(C)(=O)=O)c4)sc3C)nc2)CC1` [Example 699] are 21.9 nM, above 10000 nM and 517 nM.
On the same counts, the results for `Cc1sc(C(=O)Nc2cc(Cl)cc(NS(C)(=O)=O)c2)cc1-c1ncc(N2CCC3(COC3)C2)cc1F` [Example 512] are 17.6 nM, 6720 nM and 107 nM.
As for `Cn1cc(C(=O)Nc2cc(Cl)cc(NS(C)(=O)=O)c2)cc1-c1ncc(N2CC(F)(F)C2)cc1OCc1cnco1` [Example 733], the EC50 in assay [1] (setting [2]) is 88.3 nM. Besides, the IC50 with NCI-H747 cells (NCI-H747, NCI-H747) is above 10000 nM; with LS411N cells it was 206 nM.
Consider `CCS(=O)(=O)Nc1cc(Cl)cc(NC(=O)c2cc(C)n(-c3ncc(N4CC(F)(F)C4)cn3)c2)c1` [Example 423], for which the EC50 in assay [1] (setting [2]) was 51.2 nM. The IC50 in the assay on NCI-H747 cells (NCI-H747, NCI-H747) turned out to be 8030 nM; in the assay with LS411N cells it was 269 nM.
In the same order, the values of `Cc1sc(C(=O)Nc2cc(Cl)cc(NS(C)(=O)=O)c2)cc1-c1ncc(F)cc1OCc1cnco1` [Example 732] are 26.1 nM, 4570 nM and 34.1 nM.
On the same counts, the results for `COC(=O)N1CCN(c2ccc(-c3cc(C(=O)Nc4cc(Cl)cc(NS(C)(=O)=O)c4)cn3C)nc2)CC1` [Example 596] are 38 nM, 9880 nM and 172 nM.
Take `CCS(=O)(=O)Nc1cc(Cl)cc(NC(=O)c2cc(-c3ncc(F)cc3F)c(C)s2)c1` [Example 347]: in assay [1] (setting [3]), the 50% effective concentration (EC50) stood at 96.8 nM. For the same compound, the half-maximal inhibitory concentration (IC50) was above 10000 nM with NCI-H747 cells (NCI-H747, NCI-H747, CRC-MSS) and 160 nM with LS411N cells (CRC-MSI-H).
Consider `Cc1sc(C(=O)Nc2cc(Cl)cc(NS(C)(=O)=O)c2)cc1-c1ncc(OC2CNC2)cn1` [Example 636, 4-[5-(azetidin-3-yloxy)pyrimidin-2-yl]-N-(3-chloro-5-methanesulfonamidophenyl)-5-methylthiophene-2-carboxamide], for which the EC50 in assay [1] (setting [2]) was 300 nM. Moreover, the half-maximal inhibitory concentration (IC50) in the assay with NCI-H747 cells (NCI-H747, NCI-H747) was above 10000 nM; in the assay with LS411N cells it was 1210 nM.
In the same order, the values of `Cc1cc(C(=O)Nc2cc(Cl)cc(NS(C)(=O)=O)c2)cn1-c1ncc(N2CC(F)(F)C2)cc1F` [Example 420] are 50.6 nM, 3870 nM and 353 nM.
In the same order, the values of `CCS(=O)(=O)Nc1cc(Cl)cc(NC(=O)c2cc(-c3ccc(N4CC(F)(F)C4)cn3)n(C)c2)c1` [Example 403] are 100 nM, 7410 nM and 230 nM.
In the same order, the values of `Cn1cc(C(=O)Nc2cc(Cl)cc(NS(C)(=O)=O)c2)cc1-c1ncc(N2CC(C(F)(F)F)C2)cn1` [Example 493] are 22 nM, above 10000 nM and 131 nM.
In the case of `COc1cc(C(F)(F)F)cnc1-c1cc(C(=O)Nc2cc(Cl)cc(NS(C)(=O)=O)c2)sc1C` [Example 550], the 50% effective concentration (EC50) in assay [1] (setting [2]) turned out to be 105 nM. The IC50 is 3640 nM in the assay with NCI-H747 cells (NCI-H747, NCI-H747) and 352 nM in the assay on LS411N cells.
In the case of `CN1CC(Oc2cnc(-c3cc(C(=O)Nc4cc(Cl)cc(NS(C)(=O)=O)c4)cn3CC(F)(F)F)nc2)C1` [Example 613], the EC50 in assay [1] (setting [2]) was 116 nM. The IC50 is above 10000 nM in the assay on NCI-H747 cells (NCI-H747, NCI-H747) and 173 nM in the assay with LS411N cells.
On the same counts, the results for `Cc1sc(C(=O)Nc2cc(Cl)cc(NS(C)(=O)=O)c2)cc1-c1ncc(N2CCC3(CC2)CC3(F)F)cc1F` [Example 478] are 102 nM, 4840 nM and 259 nM.
With `Cc1sc(C(=O)Nc2cc(Cl)cc(NS(C)(=O)=O)c2)cc1-c1ccc(N2CCC(F)(F)C2)cn1` [Example 485], in assay [1] (setting [2]), the concentration giving a half-maximal response (EC50) came to 12.4 nM. In addition, the IC50 in the assay with NCI-H747 cells (NCI-H747, NCI-H747) turned out to be 2060 nM; in the assay on LS411N cells, 58.3 nM.
In the same order, the values of `Cc1sc(C(=O)Nc2cc(Cl)cc(NS(C)(=O)=O)c2)cc1-c1ncc(N(C)S(C)(=O)=O)cn1` [Example 720] are 54.9 nM, 7900 nM and 452 nM.
On the same counts, the results for `COC1CN(c2cnc(-n3cc(C(=O)Nc4cc(Cl)cc(NS(C)(=O)=O)c4)cc3C)nc2)C1` [Example 404] are 35.6 nM, above 10000 nM and 138 nM.
On the same counts, the results for `Cc1sc(C(=O)Nc2cc(Cl)cc(NS(C)(=O)=O)c2)cc1-c1ncc(N2CC(F)(F)C2)cc1C#N` [Example 715] are 14.4 nM, 9760 nM and 69.9 nM.
`COc1cnc(-c2cc(C(=O)Nc3cc(Cl)cc(NS(C)(=O)=O)c3)sc2C)c(F)c1` [Example 358]: the EC50 in assay [1] (setting [3]) turned out to be 53.3 nM. Besides, the IC50 in the assay on NCI-H747 cells (NCI-H747, NCI-H747, CRC-MSS) is 6870 nM; in the assay on LS411N cells (CRC-MSI-H), 129 nM.
Take `Cc1sc(C(=O)Nc2cc(Cl)cc(NS(C)(=O)=O)c2)cc1-c1ncc(N2CC3C(C2)C3(C)C)cc1F` (stereo not drawn) [Example 476]: the concentration giving a half-maximal response (EC50) in assay [1] (setting [2]) was found to be 108 nM. In addition, the 50% inhibitory concentration (IC50) was found to be 4140 nM with NCI-H747 cells (NCI-H747, NCI-H747) and 140 nM with LS411N cells.
In the same order, the values of `Cn1cc(C(=O)Nc2cc(Cl)cc(NS(C)(=O)=O)c2)cc1-c1ncncc1OCc1cc(F)cc(F)c1` [Example 627] are 37.6 nM, above 10000 nM and 29.4 nM.
In the same order, the values of `Cc1sc(C(=O)Nc2cc(Cl)cc(NS(C)(=O)=O)c2)cc1-c1ncc(OC(C)(C)C)cn1` [Example 559] are 42.5 nM, 3370 nM and 74 nM.

The term EC50 denotes the concentration at which the effect is half-maximal. By IC50 is commonly meant the concentration needed to halve the response being measured.

The values are drawn from US12162867B2, “Inhibitors of RNA helicase DHX9 and uses thereof” (ACCENT THERAPEUTICS, INC., priority 2022, dated 2024).
